Source: ChEMBL document CHEMBL1142360 (J Med Chem, 2008)

Tests used:
[1] = Partition coefficient, log P of the compound; assay type: physicochemical; settings: octanol/water
[2] = system: PC-3; test: Antiproliferative activity against human PC3 cells at 10 uM after 5 days; assay type: functional
[3] = system: PC-3; test: Antiproliferative activity against human PC3 cells; assay type: functional, cell-based

Structure (SMILES)	logP [1]	Activity [2] [%]	IC50 [3] [µM]
CC1(C)NC(=O)N(c2ccc([N+](=O)[O-])c(C(F)(F)F)c2)C1=O [NILUTAMIDE]	3.2	11	
C[C@](O)(CS(=O)(=O)c1ccc(F)cc1)C(=O)Nc1ccc(C#N)c(C(F)(F)F)c1 [(R)-BICALUTAMIDE]	3.4	15	
COc1ccc(C2(c3ccc(C#N)c(C(F)(F)F)c3)NC(=O)N(c3ccc(C#N)c(C(F)(F)F)c3)C2=O)cc1 (configuration not stated)	5.7	76	5.6
